Assay results as given in patent publication US9828369B2, “Isoquinoline derivatives useful as inhibitors of diacylglyceride O-acyltransferase 2” (Merck Sharp & Dohme Corp., priority 2014, dated 2017).

molecular target: hDGAT2 (Homo sapiens (Human), UniProt Q96PD7); assay: DGAT2 enzymatic activity assay (triolein formation, LC/MS/MS); conditions: read-out: IC50 values for inhibition of DGAT2; membrane prep of Sf-9 cells expressing hDGAT2; 25 μM diolein, 10 μM oleoyl-CoA; room temperature; triolein by LC/MS/MS
Sequence (Q96PD7 whole entry): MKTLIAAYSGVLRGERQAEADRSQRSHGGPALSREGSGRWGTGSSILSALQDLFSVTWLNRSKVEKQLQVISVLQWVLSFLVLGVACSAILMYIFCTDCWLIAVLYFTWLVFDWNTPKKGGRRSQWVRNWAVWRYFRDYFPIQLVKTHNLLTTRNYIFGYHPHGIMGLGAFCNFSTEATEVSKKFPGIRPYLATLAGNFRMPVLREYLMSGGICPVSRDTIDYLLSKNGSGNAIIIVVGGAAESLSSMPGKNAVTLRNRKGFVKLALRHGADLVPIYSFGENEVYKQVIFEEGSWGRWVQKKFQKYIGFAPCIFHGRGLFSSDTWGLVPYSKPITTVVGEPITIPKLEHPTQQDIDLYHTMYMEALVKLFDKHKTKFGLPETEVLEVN

Going from COc1cccc(-c2ccc(CNC(=O)c3csc(-c4ccc(C(F)(F)F)cc4)n3)c3cnccc23)c1 [Example 78, N-((5-(3-methoxyphenyl)isoquinolin-8-yl)methyl)-2-(4-(trifluoromethyl)phenyl)thiazole-4-carboxamide] to COc1cccc(-c2ccc(CNC(=O)C(C)c3ccc(C(F)(F)F)cc3)c3cnccc23)c1 (centres unmarked) [Example 141, N-((5-(3-methoxyphenyl)isoquinolin-8-yl)methyl)-2-(4-(trifluoromethyl)phenyl)propanamide], the IC50 falls from 1250 nM to 566 nM (2.2-fold). The second is the more potent here.

COc1cccc(-c2ccc(CNC(=O)CN3CCN(c4ccccc4)CC3)c3cnccc23)c1 [Example 93, N-((5-(3-methoxyphenyl)isoquinolin-8-yl)methyl)-2-(4-phenylpiperazin-1-yl)acetamide] and COc1cccc(-c2ccc(CNC(=O)c3cnn(-c4ccccc4)c3)c3cnccc23)c1 [Example 79, N-((5-(3-methoxyphenyl)isoquinolin-8-yl)methyl)-1-phenyl-1H-pyrazole-4-carboxamide] are within 1.5-fold of each other in IC50: 6670 nM for the first, 8490 nM for the second.

COc1cccc(-c2ccc(CNC(=O)Cc3ccc(Oc4ccccc4)cc3)c3cnccc23)c1 [Example 53, N-((5-(3-methoxyphenyl)isoquinolin-8-yl)methyl)-2-(4-phenoxyphenyl)acetamide] and COc1cccc(-c2ccc(CNC(=O)Cc3nc(-c4ccccc4)cs3)c3cnccc23)c1 [Example 89, N-((5-(3-methoxyphenyl)isoquinolin-8-yl)methyl)-2-(4-phenylthiazol-2-yl)acetamide] are within 1.5-fold of each other in IC50: 2160 nM for the first, 2230 nM for the second.

First: COc1cccc(-c2ccc(CNC(=O)C3CCC(c4ccccc4)=N3)c3cnccc23)c1 (centres unmarked) [Example 96, N-((5-(3-methoxyphenyl)isoquinolin-8-yl)methyl)-5-phenyl-3,4-dihydro-2H-pyrrole-2-carboxamide]
Second: COc1cccc(-c2ccc(CNC(=O)C3CC3(F)c3ccccc3)c3cnccc23)c1 (centres unmarked) [Example 109, 2-fluoro-N-((5-(3-methoxyphenyl)isoquinolin-8-yl)methyl)-2-phenylcyclopropanecarboxamide]
The IC50 of the first is 11-fold higher: 8000 nM for the first, 696 nM for the second.

COc1cccc(-c2ccc(CNC(=O)C3CC3c3ccc(Cl)cc3)c3cnccc23)c1 (centres unmarked) [Example 97, 2-(4-chlorophenyl)-N-((5-(3 methoxyphenyl)isoquinolin-8-yl)methyl)cyclopropanecarboxamide] and COc1ccc([C@@H]2C[C@@H]2C(=O)NCc2ccc(-c3cccc(OC)c3)c3ccncc23)cc1 (relative stereo) [Example 24, (cis)-2-(4-methoxyphenyl)-N-((5-(3-methoxyphenyl)isoquinolin-8-yl)methyl)cyclopropanecarboxamide] are within 1.5-fold of each other in IC50: 597 nM for the first, 589 nM for the second.

Compared with COc1cccc(-c2ccc(CNC(=O)C3CC3c3ccccc3)c3ccccc23)c1 (centres unmarked) [Example 172, N-((4-(3-methoxyphenyl)naphthalen-1-yl)methyl)-2-phenylcyclopropanecarboxamide], O=C(NCc1ccc(-c2cccc(OC(F)(F)F)c2)c2ccncc12)C1CC1c1ccccc1 (centres unmarked) [Example 17, 2-phenyl-N-((5-(3-(trifluoromethoxy)phenyl)isoquinolin-8-yl)methyl)cyclopropanecarboxamide] is 18-fold higher in IC50: 206 nM for the first, 3760 nM for the second. The first is the more potent here.

Compared with COc1cccc(-c2ccc(CNC(=O)c3ccc(N4CCCCC4)cc3)c3cnccc23)c1 [Example 84, N-((5-(3-methoxyphenyl)isoquinolin-8-yl)methyl)-4-(piperidin-1-yl)benzamide], COc1cccc(-c2ccc(CNC(=O)c3ccc(N4CCCC4=O)cc3)c3cnccc23)c1 [Example 67, N-((5-(3-methoxyphenyl)isoquinolin-8-yl)methyl)-4-(2-oxopyrrolidin-1-yl)benzamide] is 2-fold higher in IC50: 988 nM for the first, 1950 nM for the second.

First: COc1cccc(-c2ccc(CNC(=O)c3cn(-c4ccccc4)nc3-c3ccccc3)c3cnccc23)c1 [Example 66, N-((5-(3-methoxyphenyl)isoquinolin-8-yl)methyl)-1,3-diphenyl-1H-pyrazole-4-carboxamide]
Second: COc1cccc(-c2ccc(CNC(=O)c3ccn(-c4ccccc4)n3)c3cnccc23)c1 [Example 74, N-((5-(3-methoxyphenyl)isoquinolin-8-yl)methyl)-1-phenyl-1H-pyrazole-3-carboxamide]
The IC50 of the first is 2.7-fold lower: 479 nM for the first, 1270 nM for the second.

Going from COc1cccc(-c2ccc(CNC(=O)c3cnc(-c4ccccc4)cn3)c3cnccc23)c1 [Example 75, N-((5-(3-methoxyphenyl)isoquinolin-8-yl)methyl)-5-phenylpyrazine-2-carboxamide] to COc1cccc(-c2ccc(CNC(=O)C(C)c3ccc(-c4ccccc4)cc3)c3cnccc23)c1 (centres unmarked) [Example 134, 2-([1,1′-biphenyl]-4-yl)-N-((5-(3-methoxyphenyl)isoquinolin-8-yl)methyl)propanamide], the IC50 falls from 9050 nM to 324 nM (28-fold). The second is the more potent here.

COc1cccc(-c2ccc(CNC(=O)c3cccc(-c4cccc(F)c4)c3)c3cnccc23)c1 [Example 87, 3′-fluoro-N-((5-(3-methoxyphenyl)isoquinolin-8-yl)methyl)-[1,1′-biphenyl]-3-carboxamide] and COc1cccc(-c2ccc(CNC(=O)c3ccc(-c4ccc(F)cc4)cc3)c3cnccc23)c1 [Example 86, 4′-fluoro-N-((5-(3-methoxyphenyl)isoquinolin-8-yl)methyl)-[1,1′-biphenyl]-4-carboxamide] are within 1.5-fold of each other in IC50: 1200 nM for the first, 1400 nM for the second.

Going from O=C(O)CCc1ccc(-c2ccc(CNC(=O)Nc3cccc(Cl)c3Cl)c3cnccc23)cc1 [Example 163, 3-(4-(8-((3-(2,3-dichlorophenyl)ureido)methyl)isoquinolin-5-yl)phenyl)propanoic acid] to CNC(=O)c1cccc(-c2ccc(CNC(=O)Nc3cccc(Cl)c3Cl)c3cnccc23)c1 [Example 161, 3-(8-((3-(2,3-dichlorophenyl)ureido)methyl)isoquinolin-5-yl)-N-methylbenzamide], the IC50 falls from 2360 nM to 1210 nM (2-fold).

Compared with COc1cccc(-c2ccc(CNC(=O)Cc3cccc(C(F)(F)F)c3)c3cnccc23)c1 [Example 48, N-((5-(3-methoxyphenyl)isoquinolin-8-yl)methyl)-2-(3-(trifluoromethyl)phenyl)acetamide], COc1cccc(-c2ccc(CNC(=O)Cc3cccc(Cl)c3Cl)c3cnccc23)c1 [Example 31, 2-(2,3-dichlorophenyl)-N-((5-(3-methoxyphenyl)isoquinolin-8-yl)methyl)acetamide] is 3-fold higher in IC50: 291 nM for the first, 883 nM for the second. The first is the more potent here.

Going from COc1cccc(-c2ccc(CNC(=O)C3CC3c3cccnc3)c3cnccc23)c1 (centres unmarked) [Example 104, N-((5-(3-methoxyphenyl)isoquinolin-8-yl)methyl)-2-(pyridin-3-yl)cyclopropanecarboxamide] to COc1cccc(-c2ccc(CNC(=O)C3CC3c3ccccc3Br)c3cnccc23)c1 (centres unmarked) [Example 101, 2-(2-bromophenyl)-N-((5-(3-methoxyphenyl)isoquinolin-8-yl)methyl)cyclopropanecarboxamide], the IC50 rises from 483 nM to 915 nM (1.9-fold). The first is the more potent here.

CC(C)(C)OC(=O)N1CCC=C(c2ccc(CNC(=O)Nc3cccc(Cl)c3Cl)c3cnccc23)C1 [Example 165, tert-butyl 3-(8-((3-(2,3-dichlorophenyl)ureido)methyl)isoquinolin-5-yl)-5,6-dihydropyridine-1(2H)-carboxylate] and CC(c1ccccc1)c1ccc(CNC(=O)Nc2cccc(Cl)c2Cl)c2cnccc12 (centres unmarked) [Example 164, 1-(2,3-dichlorophenyl)-3-((5-(1-phenylethyl)isoquinolin-8-yl)methyl)urea] are within 1.5-fold of each other in IC50: 4310 nM for the first, 4220 nM for the second.

Compared with COc1cccc(-c2ccc(CNC(=O)C34CC(C3)C4)c3cnccc23)c1 [Example 130, N-((5-(3-methoxyphenyl)isoquinolin-8-yl)methyl)bicyclo[1.1.1]pentane-1-carboxamide], COc1cccc(-c2ccc(CNC(=O)c3noc4c3CCCC4)c3cnccc23)c1 [Example 39, N-((5-(3-methoxyphenyl)isoquinolin-8-yl)methyl)-4,5,6,7-tetrahydrobenzo[d]isoxazole-3-carboxamide] is 35-fold higher in IC50: 268 nM for the first, 9390 nM for the second.

Compared with COc1ccc([C@H]2C[C@@H]2C(=O)NCc2ccc(-c3cccc(OC)c3)c3ccncc23)cc1 [Example 23, (1S,2S)-2-(4-methoxyphenyl)-N-((5-(3-methoxyphenyl)isoquinolin-8-yl)methyl)cyclopropanecarboxamide], COc1ccc(C2CC2C(=O)NCc2ccc(-c3cccc(OC)c3)c3ccncc23)cc1 (centres unmarked) [Example 106, 2-(4-methoxyphenyl)-N-((5-(3-methoxyphenyl)isoquinolin-8-yl)methyl)cyclopropanecarboxamide] is 19-fold lower in IC50: 9960 nM for the first, 537 nM for the second.

Going from COC(=O)c1ccccc1NC(=O)NCc1ccc(-c2cccc(OC)c2)c2ccncc12 [Example 153, methyl 2-(3-((5-(3-methoxyphenyl)isoquinolin-8-yl)methyl)ureido)benzoate] to COc1cccc(-c2ccc(CNC(=O)C(C)c3ccc(OC(F)(F)F)cc3)c3cnccc23)c1 (centres unmarked) [Example 137, N-((5-(3-methoxyphenyl)isoquinolin-8-yl)methyl)-2-(4-(trifluoromethoxy)phenyl)propanamide], the IC50 falls from 1110 nM to 484 nM (2.3-fold). The second is the more potent here.

Going from COc1cccc(-c2ccc(CNC(=O)C3(S(=O)(=O)c4ccc(Cl)cc4)CC3)c3cnccc23)c1 [Example 103, 1-((4-chlorophenyl)sulfonyl)-N-((5-(3-methoxyphenyl)isoquinolin-8-yl)methyl)cyclopropanecarboxamide] to COc1cccc(-c2ccc(CNC(=O)C(c3ccc(C(F)(F)F)cc3)C(C)C)c3cnccc23)c1 (centres unmarked) [Example 125, N-((5-(3-methoxyphenyl)isoquinolin-8-yl)methyl)-3-methyl-2-(4-(trifluoromethyl)phenyl)butanamide], the IC50 rises from 1180 nM to 2460 nM (2.1-fold).

COc1cccc(-c2ccc(CNC(=O)C(C)c3ccc4cc(OC)ccc4c3)c3cnccc23)c1 (centres unmarked) [Example 143, 2-(6-methoxynaphthalen-2-yl)-N-((5-(3-methoxyphenyl)isoquinolin-8-yl)methyl)propanamide] and COC(=O)c1cccc(-c2ccc(CNC(=O)c3cccc4cnccc34)c3cnccc23)c1 [Example 12, 8-((isoquinoline-5-carboxamido)methyl)-5-(3-(methoxycarbonyl)phenyl) isoquinolin-2-ium] are within 1.5-fold of each other in IC50: 197 nM for the first, 196 nM for the second.
